Structures can show the parent of a compound that is named as a salt. Where two headings read alike, the source gives them in different places.
Columns and labels:
Assay type in all cases: cell-based, human
SMN2 mRNA = test: Splicing RT-qPCR gene panel, SMN2 canonical junction (CJ) mRNA; settings: Tables 4A/4B, read-out: SMN2 (IC50, decrease in CJ mRNA, gene panel)
How it was run: (§1)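 Canonical-junction mRNA levels were quantified by RT-qPCR in lysates, using ΔΔCt against a housekeeping gene (GAPDH, GUSB or PPIA) and DMSO wells, expressed as percentage response. Cells (A673 or K562) had been exposed for 24 h at 37° C. to 11 three-fold compound concentrations up to 10 uM, DMSO ≤0.25%.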

HTT mRNA [1] = test: Splicing RT-qPCR assay, HTT canonical (CJ) and alternative (AJ) junction mRNA
How it was run: (§2)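 A673 or K562 cells were treated 24 h at 37 °C with an 11-point 3-fold compound dilution series (top 10 uM, DMSO ≤0.25%). Lysates went to one-step RT-qPCR measuring canonical (CJ) and alternative-exon (AJ) junction transcripts, normalized to GAPDH, GUSB or PPIA.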

MYB mRNA = test: Splicing RT-qPCR assay, MYB canonical (CJ) and alternative (AJ) junction mRNA
How it was run: as §2

HTT mRNA [2] = test: Splicing RT-qPCR gene panel, HTT canonical junction (CJ) mRNA; settings: Tables 4A/4B, read-out: HTT (IC50, decrease in CJ mRNA, gene panel)
How it was run: as §1

Target C mRNA = test: Splicing RT-qPCR gene panel, Target C canonical junction (CJ) mRNA; settings: Tables 4A/4B, read-out: Target C (IC50, decrease in CJ mRNA, gene panel)
How it was run: as §1

[3] = Homo sapiens, 24 h, A673 or K562 cells, 24 hours compound treatment, read-out: HTT CJ (IC50, decrease in canonical junction mRNA)
[4] = Homo sapiens, A673 or K562 cells, 24 hours compound treatment, read-out: HTT AJ (AC50, increase in alternative junction mRNA)
[5] = Homo sapiens, 24 h, A673 or K562 cells, 24 hours compound treatment, RT-qPCR, read-out: MYB AJ (AC50, increase in alternative junction mRNA)
[6] = Homo sapiens, 24 h, A673 or K562 cells, 24 hours compound treatment, RT-qPCR, read-out: MYB CJ (IC50, decrease in canonical junction mRNA)
[7] = Homo sapiens, Tables 4A/4B, canonical junction qPCR panel, read-out: MYB (IC50, decrease in CJ mRNA, gene panel)
[8] = Homo sapiens, Table 3B, alternative junction mRNA, read-out: HTT AJ (AC50, increase in AJ mRNA)
[9] = Homo sapiens, Table 3B, canonical junction mRNA, read-out: HTT CJ (IC50, decrease in CJ mRNA)
[10] = Homo sapiens, Table 3B, canonical junction mRNA, RT-qPCR, read-out: MYB CJ (IC50, decrease in CJ mRNA)
[11] = Homo sapiens, Table 3B, alternative junction mRNA, RT-qPCR, read-out: MYB AJ (AC50, increase in AJ mRNA)

For Cc1cc(NC(=O)c2ccc(N3CCNCC3)c3cn(C)nc23)cc2c1nc(C)n2C [Compound 321, 2-methyl-4-(piperazin-1-yl)-N-(2,3,7-trimethyl-1,3-benzodiazol-5-yl) indazole-7-carboxamide trifluoroacetate], the IC50 (SMN2 mRNA; Homo sapiens) was > 10 µM, the IC50 (HTT mRNA [1]; [3]) was > 10 µM and the AC50 (HTT mRNA [1]; [4]) was > 10 µM. For the same compound, the AC50 (MYB mRNA; [5]) was > 10 µM, the IC50 (MYB mRNA; [6]) was > 10 µM and the IC50 (MYB mRNA; [7]) was > 10 µM. For the same compound, the IC50 (HTT mRNA [2]; Homo sapiens) was > 10 µM and the IC50 (Target C mRNA; Homo sapiens) was > 10 µM.

Compound CCn1cc2c(NC3CCNCC3)ccc(C(=O)Nc3cc(F)c4nc(C)cn4c3)c2n1 [Compound 476, 2-ethyl-N-{8-fluoro-2-methylimidazo[1,2-a]pyridin-6-yl}-4-(piperidin-4-ylamino) indazole-7-carboxamide] has an IC50 (SMN2 mRNA; Homo sapiens) of 0.1 to 1 µM, an IC50 (HTT mRNA [1]; [3]) of 0.1 to 1 µM and an AC50 (HTT mRNA [1]; [4]) of 1 to 10 µM. For the same compound, the AC50 (MYB mRNA; [5]) was 1 to 10 µM, the IC50 (MYB mRNA; [6]) was 1 to 10 µM and the IC50 (MYB mRNA; [7]) was 1 to 10 µM. For the same compound, the IC50 (HTT mRNA [2]; Homo sapiens) was 0.1 to 1 µM and the IC50 (Target C mRNA; Homo sapiens) was 1 to 10 µM.

For CCn1cc2c(N3CC[C@H](N(C)C)C3)ccc(C(=O)Nc3cc(F)c4nc(C)cn4c3)c2n1 [Compound 408, (S)-4-(3-(dimethylamino)pyrrolidin-1-yl)-2-ethyl-N-(8-fluoro-2-methylimidazo[1,2-a]pyridin-6-yl)-2H-indazole-7-carboxamide], the IC50 (SMN2 mRNA; Homo sapiens) was < 0.1 µM, the IC50 (HTT mRNA [1]; [3]) was > 10 µM and the AC50 (HTT mRNA [1]; [4]) was > 10 µM. The AC50 (MYB mRNA; [5]) was 0.1 to 1 µM, the IC50 (MYB mRNA; [6]) was 0.1 to 1 µM and the IC50 (MYB mRNA; [7]) was 0.1 to 1 µM. For the same compound, the IC50 (HTT mRNA [2]; Homo sapiens) was > 10 µM and the IC50 (Target C mRNA; Homo sapiens) was > 10 µM.

Cc1cn2cc(NC(=O)c3ccc(N4CCNCC4)c4cn(C)nc34)c(C#N)cc2n1 [Compound 452, N-{7-cyano-2-methylimidazo[1,2-a]pyridin-6-yl}-2-methyl-4-(piperazin-1-yl) indazole-7-carboxamide] was tested, and the IC50 (SMN2 mRNA) was 0.1 to 1 µM, the AC50 (HTT mRNA [1]; A673 or K562 cells, 24 hours compound treatment, read-out: HTT AJ (AC50, increase in alternative junction mRNA)) was > 10 µM and the IC50 (HTT mRNA [1]; A673 or K562 cells, 24 hours compound treatment, read-out: HTT CJ (IC50, decrease in canonical junction mRNA)) was > 10 µM. It also gave an AC50 (MYB mRNA; A673 or K562 cells, 24 hours compound treatment, RT-qPCR, read-out: MYB AJ (AC50, increase in alternative junction mRNA)) of 1 to 10 µM, an IC50 (MYB mRNA; A673 or K562 cells, 24 hours compound treatment, RT-qPCR, read-out: MYB CJ (IC50, decrease in canonical junction mRNA)) of 1 to 10 µM and an IC50 (MYB mRNA; Tables 4A/4B, canonical junction qPCR panel, read-out: MYB (IC50, decrease in CJ mRNA, gene panel)) of 1 to 10 µM. The IC50 (HTT mRNA [2]) was > 10 µM and the IC50 (Target C mRNA) was > 10 µM.

In the case of Cc1cn2cc(NC(=O)c3ncc(N4CCNCC4)c4cn(C)nc34)cc(F)c2n1 [Compound 932], the IC50 (SMN2 mRNA; Homo sapiens) is reported as 0.1 to 1 µM, the AC50 (HTT mRNA [1]; [8]) is reported as > 10 µM and the IC50 (HTT mRNA [1]; [9]) is reported as > 10 µM. The IC50 (MYB mRNA; [10]) was 1 to 10 µM, the IC50 (MYB mRNA; [7]) was 1 to 10 µM and the AC50 (MYB mRNA; [11]) was 1 to 10 µM. The IC50 (HTT mRNA [2]; Homo sapiens) was > 10 µM and the IC50 (Target C mRNA; Homo sapiens) was > 10 µM.

Cn1cc2cc(NC(=O)c3ccc(N4CCNCC4)c4cn(C)nc34)ccc2n1 [Compound 324, 2-methyl-N-(2-methylindazol-5-yl)-4-(piperazin-1-yl) indazole-7-carboxamide hydrochloride] was tested, and the IC50 (SMN2 mRNA; Homo sapiens) was < 0.1 µM, the IC50 (HTT mRNA [1]; [3]) was > 10 µM and the AC50 (HTT mRNA [1]; [4]) was 1 to 10 µM. The AC50 (MYB mRNA; [5]) was 0.1 to 1 µM, the IC50 (MYB mRNA; [6]) was 0.1 to 1 µM and the IC50 (MYB mRNA; [7]) was 0.1 to 1 µM. For the same compound, the IC50 (HTT mRNA [2]; Homo sapiens) was > 10 µM and the IC50 (Target C mRNA; Homo sapiens) was > 10 µM.

For Cc1cn2cc(NC(=O)c3ccc(N4CC[C@@H](NC5CC5)C4)c4cc(C)nn34)cc(F)c2n1 [Compound 963], the IC50 (SMN2 mRNA; Homo sapiens) was < 0.1 µM, the AC50 (HTT mRNA [1]; [8]) was 1 to 10 µM and the IC50 (HTT mRNA [1]; [9]) was 1 to 10 µM. For the same compound, the IC50 (MYB mRNA; [10]) was 0.1 to 1 µM, the IC50 (MYB mRNA; [7]) was 0.1 to 1 µM and the AC50 (MYB mRNA; [11]) was 0.1 to 1 µM. The IC50 (HTT mRNA [2]; Homo sapiens) was 1 to 10 µM and the IC50 (Target C mRNA; Homo sapiens) was > 10 µM.

Cc1cn2cc(-c3ccc(C(=O)NC4CCNCC4)c4nn(C)cc34)cc(F)c2n1 [Compound 280] was tested, and the IC50 (SMN2 mRNA; Homo sapiens) was 1 to 10 µM, the IC50 (HTT mRNA [1]; [3]) was 1 to 10 µM and the AC50 (HTT mRNA [1]; [4]) was 1 to 10 µM. The AC50 (MYB mRNA; [5]) was 1 to 10 µM, the IC50 (MYB mRNA; [6]) was > 10 µM and the IC50 (MYB mRNA; [7]) was > 10 µM. For the same compound, the IC50 (HTT mRNA [2]; Homo sapiens) was 1 to 10 µM and the IC50 (Target C mRNA; Homo sapiens) was > 10 µM.

In the case of Cc1cn2cc(NC(=O)c3ccc(N4CCC(N5CCCC5)C4)c4cn(C)nc34)cc(F)c2n1 (stereo not drawn) [Compound 272], the IC50 (SMN2 mRNA; Homo sapiens) is reported as < 0.1 µM, the IC50 (HTT mRNA [1]; [3]) is reported as 0.1 to 1 µM and the AC50 (HTT mRNA [1]; [4]) is reported as 0.1 to 1 µM. The AC50 (MYB mRNA; [5]) was < 0.1 µM, the IC50 (MYB mRNA; [6]) was 0.1 to 1 µM and the IC50 (MYB mRNA; [7]) was 0.1 to 1 µM. The IC50 (HTT mRNA [2]; Homo sapiens) was 0.1 to 1 µM and the IC50 (Target C mRNA; Homo sapiens) was 0.1 to 1 µM.

From US20250154169A1, “COMPOUNDS AND METHODS FOR MODULATING SPLICING” (REMIX THERAPEUTICS INC., priority 2021, published 2025)
